Data reported in patent US5382596A, “Substituted 2-aminotetralins” (priority 1993, dated 1995).
Like-named read-outs stand apart in the source and are kept apart here.

What was measured:
[1] = biological target: dopamine D2 receptor (Mus musculus, UniProt P61168); test: biochemical; assay type: biochemical
Procedure: Vasa deferentia from male BALB/C mice weighing approximately 30 g were removed and placed in isolated organ baths containing magnesium-free modified Krebs-Henseleit solution which was gassed with 95% O2 and 5% CO2 and maintained at 37° C. Tissues were set up under resting tension of 0.5 g and stimulated electrically at 60 volts, 0.1 Hz and 1 msec duration to produce a series of twitch responses. Tissues were pretreated with propranolol (1 μM) to block β-adrenoceptors, idazoxan (3 μM) to block α2 -adrenoceptors receptors, and ascorbic acid (100 μM) for 60 min before the addition of test compound.

[2] = biological target: adrenergic α2 receptor (Rattus norvegicus, UniProt P22909); test: Adrenergic α2 in vitro functional test (rat vas deferens, inhibition of twitch); assay type: biochemical
Procedure: (§1) Vasa deferentia from male Sprague-Dawley rats weighing between 150-250 g were removed and placed in isolated organ baths containing Krebs-Henseleitsolution under a resting tension of 1 g. All other set up conditions were identical to those used for the mouse was deferens. Tissues were pretreated with propranolol (1 μM), ascorbic acid (100 μM) and the α1 -adrenergic antagonist prazosin (0.3 or 1 μM) for 60 min before the addition of test compound.

[3] = biological target: Dopamine D1 receptor (Bos taurus, UniProt Q95136); test: biochemical; assay type: binding, bovine
Procedure: (§2) Membranes were prepared using a Brinkmann Polytron and collected by centrifugation. Membrane sources were bovine caudate (D2,D1) or rat cortex (α2). The membranes were washed, resuspended, and incubated at 37° C. for 30 min. in either the presence (rat cortex) of 1 μ/ml adenosine deaminase or absence (bovine caudate) of 0.1 μ/ml adenosine deaminase. Membranes were centrifuged, washed once and frozen at -70° C. until used. Immediately before use, the membranes were thawed, washed once, and resuspended to a final concentration of 0.5-2 mg/ml. Assays were initiated by addition of membranes. For D2 and D1 assays, the radioligands and conditions used were ^3 H-Spiperone (RT, 75 min.) and ^3 H-SCH23390 (37° C., 15 min.), respectively. For α2 assays, ^3 H-PAC (RT, 30 min.) was used Assays were terminated by filtration using a Brandel cell harvester over Whatman GF/B filters that had been pretreated with 0.1% polyethylenimine. […]

[4] = biological target: Dopamine D2 receptor (Bos taurus, UniProt P20288); test: biochemical; assay type: binding, bovine
Procedure: as §2

[5] = system: denervated supersensitive postsynaptic dopamine receptors; test: In vivo functional test: contralateral circling in rats with unilateral 6-hydroxydopamine lesions of the substantia nigra; set-up: species or system rat; settings: contralateral circling, rats, unilateral 6-hydroxydopamine lesion
Description: Dopamine agonists produce contralateral circling behavior in rats in which unilateral lesions of the substantial nigra are made by prior injection of 6-hydroxydopamine. The circling is thought to be mediated by stimulation of denervated supersensitive postsynaptic dopamine receptors (Marshall and Ungerstedt, 1977, Eur. J. Pharmacol., 41:361-367).

[6] = biological target: T1, adrenergic α2 receptor (Rattus norvegicus, UniProt P22909); test: Adrenergic α2 in vitro functional test (rat vas deferens, inhibition of twitch); assay type: biochemical; remark: listed apart in the source
T1 sequence (P22909 1-465): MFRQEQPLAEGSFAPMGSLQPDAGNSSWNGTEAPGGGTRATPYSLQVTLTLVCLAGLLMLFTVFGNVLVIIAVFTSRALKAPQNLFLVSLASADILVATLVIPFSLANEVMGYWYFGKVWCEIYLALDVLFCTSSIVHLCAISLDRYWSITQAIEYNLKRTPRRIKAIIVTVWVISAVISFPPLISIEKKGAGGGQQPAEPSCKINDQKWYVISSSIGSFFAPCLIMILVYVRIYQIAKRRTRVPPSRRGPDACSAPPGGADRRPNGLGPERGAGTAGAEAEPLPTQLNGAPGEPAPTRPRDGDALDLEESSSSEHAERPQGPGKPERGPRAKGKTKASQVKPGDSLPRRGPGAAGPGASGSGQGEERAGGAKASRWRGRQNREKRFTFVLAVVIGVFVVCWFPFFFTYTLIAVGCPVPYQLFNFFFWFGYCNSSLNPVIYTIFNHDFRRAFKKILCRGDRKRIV
Procedure: as §1

[7] = concentration that produces 50% of the maximal inhibition of twitch, mouse vas deferens, read-out: D2 A50
[8] = bovine caudate membranes, 3H-SCH23390, 37° C., 15 min, read-out: D1 K1
[9] = bovine caudate membranes, 3H-Spiperone, RT, 75 min, read-out: D2 K1
[10] = concentration that produces 50% of the maximal inhibition of twitch, rat vas deferens, read-out: a2 A50

Sequence of Dopamine D2 receptor (P20288 whole entry): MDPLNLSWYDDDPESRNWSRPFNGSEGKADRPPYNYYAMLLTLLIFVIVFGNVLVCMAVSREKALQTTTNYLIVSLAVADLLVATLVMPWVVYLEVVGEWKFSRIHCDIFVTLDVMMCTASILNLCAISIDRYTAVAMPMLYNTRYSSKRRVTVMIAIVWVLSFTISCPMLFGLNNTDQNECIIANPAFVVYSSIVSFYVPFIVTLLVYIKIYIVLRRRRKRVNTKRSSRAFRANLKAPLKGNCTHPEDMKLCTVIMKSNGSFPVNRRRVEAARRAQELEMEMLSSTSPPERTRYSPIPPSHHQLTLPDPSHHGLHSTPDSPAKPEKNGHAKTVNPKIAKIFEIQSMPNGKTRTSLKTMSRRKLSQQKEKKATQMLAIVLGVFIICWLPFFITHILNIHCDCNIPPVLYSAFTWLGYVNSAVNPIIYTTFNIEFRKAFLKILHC
Sequence of Dopamine D1 receptor (Q95136 whole entry): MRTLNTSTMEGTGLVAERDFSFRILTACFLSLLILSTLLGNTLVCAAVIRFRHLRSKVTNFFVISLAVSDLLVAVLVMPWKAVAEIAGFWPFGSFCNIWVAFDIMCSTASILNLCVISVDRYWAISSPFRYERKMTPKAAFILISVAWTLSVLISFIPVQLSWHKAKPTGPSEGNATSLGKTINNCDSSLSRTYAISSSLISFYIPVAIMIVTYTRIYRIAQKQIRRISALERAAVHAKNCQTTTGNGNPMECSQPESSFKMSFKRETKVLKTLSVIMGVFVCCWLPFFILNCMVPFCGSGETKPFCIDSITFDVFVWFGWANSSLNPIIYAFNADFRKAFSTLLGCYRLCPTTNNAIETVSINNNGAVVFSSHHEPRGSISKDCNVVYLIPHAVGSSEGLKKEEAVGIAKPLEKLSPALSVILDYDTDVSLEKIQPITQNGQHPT
Sequence of dopamine D2 receptor (P61168 whole entry): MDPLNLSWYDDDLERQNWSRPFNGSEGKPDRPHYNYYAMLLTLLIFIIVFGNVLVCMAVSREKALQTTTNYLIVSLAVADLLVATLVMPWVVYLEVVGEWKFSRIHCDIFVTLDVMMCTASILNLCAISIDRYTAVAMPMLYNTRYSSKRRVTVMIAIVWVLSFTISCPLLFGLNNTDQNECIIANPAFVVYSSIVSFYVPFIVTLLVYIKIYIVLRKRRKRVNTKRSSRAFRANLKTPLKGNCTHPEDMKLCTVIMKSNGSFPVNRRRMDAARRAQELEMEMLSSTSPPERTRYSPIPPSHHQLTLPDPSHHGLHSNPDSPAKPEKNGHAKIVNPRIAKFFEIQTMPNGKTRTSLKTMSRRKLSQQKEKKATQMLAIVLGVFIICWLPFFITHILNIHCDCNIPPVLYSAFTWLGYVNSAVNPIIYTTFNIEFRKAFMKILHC

With `CCCN(CCOC)[C@H]1CCc2c(ccc(O)c2O)C1` [Example 4] the EC50 [1, 7] was 0.603 nM, the EC50 [2] was 42.7 nM and the Ki [3, 8] was 7080 nM. For the same compound, the Ki [4, 9] was 363 nM and the ED50 [5] was 0.006 µmol/kg.

With `CCCN(CCC1CCCO1)[C@H]1CCc2c(O)cccc2C1` (stereo partly shown) [Example 19] the “Specificity Ratio (a2 A50/D2 A50)” value [1] was 6310, the EC50 [1, 7] was 0.275 nM and the EC50 [6, 10] was 1740 nM. The Ki [3, 8] was 1510 nM, the “Selectivity Ratio (D1 K1/D2 K1)” value [4] was 14 and the Ki [4, 9] was 110 nM. The ED50 [5] was 0.020 µmol/kg.

For `CCCN(CC1CCCCO1)[C@H]1CCc2c(O)cccc2C1` (stereo partly shown) [Example 20], the “Specificity Ratio (a2 A50/D2 A50)” value [1] was 191, the EC50 [1, 7] was 1 nM and the EC50 [6, 10] was 190 nM. The Ki [3, 8] was 7080 nM, the “Selectivity Ratio (D1 K1/D2 K1)” value [4] was 7 and the Ki [4, 9] was 1070 nM. For the same compound, the ED50 [5] was 0.030 µmol/kg.

For `CCCN(CC1CCOC1)[C@H]1CCc2c(O)cccc2C1.Cl` (stereo partly drawn) [Example 21, (6S)-5,6,7,8-tetrahydro-6-[[(tetrahydro-3-furanyl)methyl]propylamino]-1-naphthalenol, hydrochloride], the “Specificity Ratio (a2 A50/D2 A50)” value [1] was 282, the EC50 [1, 7] was 0.977 nM and the EC50 [6, 10] was 275 nM. For the same compound, the Ki [3, 8] was 3630 nM, the “Selectivity Ratio (D1 K1/D2 K1)” value [4] was 24 and the Ki [4, 9] was 151 nM. For the same compound, the ED50 [5] was 0.009 µmol/kg.

With `CCCN(CC1CCCO1)[C@H]1CCc2c(O)cccc2C1` (stereo partly shown) [Example 22] the “Specificity Ratio (a2 A50/D2 A50)” value [1] was 1620, the EC50 [1, 7] was 2.19 nM and the EC50 [6, 10] was 3550 nM. For the same compound, the Ki [3, 8] was 16200 nM, the “Selectivity Ratio (D1 K1/D2 K1)” value [4] was 11 and the Ki [4, 9] was 1510 nM. For the same compound, the ED50 [5] was 0.030 µmol/kg.

`CCCN(CCC1CCCCO1)[C@H]1CCc2c(O)cccc2C1` (stereo partly shown) [Example 23] was tested, and the “Specificity Ratio (a2 A50/D2 A50)” value [1] was > 22900, the EC50 [1, 7] was 0.437 nM and the EC50 [6, 10] was > 10000 nM. The Ki [3, 8] was 7410 nM, the “Selectivity Ratio (D1 K1/D2 K1)” value [4] was 68 and the Ki [4, 9] was 110 nM. The ED50 [5] was 0.010 µmol/kg.

With `CCCN(CCC1CCOC1)[C@H]1CCc2c(O)cccc2C1` (stereo partly shown) [Example 24] the “Specificity Ratio (a2 A50/D2 A50)” value [1] was 158, the EC50 [1, 7] was 0.776 nM and the EC50 [6, 10] was 123 nM. For the same compound, the Ki [3, 8] was 5620 nM, the “Selectivity Ratio (D1 K1/D2 K1)” value [4] was 21 and the Ki [4, 9] was 263 nM. For the same compound, the ED50 [5] was 0.020 µmol/kg.

For `CCCN(CCC)C1CCc2c(O)cccc2C1` (stereo not shown) [Example 39, 5-hydroxy-2-(di-n-propyl)aminotetralin, reference compound], the EC50 [1] was 2.14 nM, the “Specificity Ratio (a2 A50/D2 A50)” value [1] was 120 and the EC50 [6] was 257 nM. For the same compound, the Ki [3] was 3800 nM, the Ki [4] was 790 nM and the “Selectivity Ratio (D1 K1/D2 K1)” value [4] was 5. It also gave an ED50 [5] of 0.010 µmol/kg.

With `CCCN(CCCOC)[C@H]1CCc2c(O)cccc2C1` [Example 41, (S)-5,6,7,8-tetrahydro-6-[(3-methoxypropyl)propylamino]-l-naphthalenol, reference compound] the “Specificity Ratio (a2 A50/D2 A50)” value [1] was 257, the EC50 [1, 7] was 0.91 nM and the EC50 [6, 10] was 234 nM. For the same compound, the Ki [3, 8] was 11000 nM, the “Selectivity Ratio (D1 K1/D2 K1)” value [4] was 14 and the Ki [4, 9] was 790 nM. It also gave an ED50 [5] of 0.020 µmol/kg.
